The structures appear in SMILES notation. Values joined by “and” are separate entries in the source; they are usually repeats but may differ in a detail not shown here. Identical values can stand only once.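 Each compound was tested at five concentrations against cells in 96-well plates for 48 hours. The concentration for 50% growth inhibition is given as GI50. TGI denotes the concentration required for complete inhibition of growth.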 Where a SMILES comes first, the peptide text is derived from it. [ ]: non-standard residue; d: D form. The star is where a group is joined. ξ: configuration not given here. X6 = FC(F)(F)c1cc(NC(=S)*)cc(C(F)(F)F)c1; ξF = NC(Cc1ccccc1)C(=O)O A value given as a limit tells only on which side of the number the result lay.

The first experiment deals with U251 CNS. The experiment can be described thus: NCI anticancer screen, dose series, 48 h.
Take `CCOC(=O)[C@]1(OC(C)=O)C[C@H](OC(C)=O)[C@@H](C(F)COP(=O)(OCc2ccccc2)OCc2ccccc2)O1` (stereo partly specified): the GI50 is 35.9 µM and > 100 µM; the TGI is above 100 µM.

As for `O=C(O)c1ccccc1[Se][Se]c1ccccc1C(=O)O`, the TGI was above 100 µM.

For `CC[C@@]1(O)C[C@H](OC2CC(N(C)C)C(O)C(C)O2)c2c(O)c3c(c(O)c2[C@H]1OC1CC(N(C)C)C(O)C(C)O1)C(=O)c1cccc(O)c1C3=O` (stereo partly specified), the GI50 is below 0.01 µM.

`CC(C)=CC(=O)C1c2cccc(O)c2C(=O)c2c(O)cc(C)cc21` (stereo unspecified): the TGI turned out to be 3.82 µM.

As to `O=C(O)CCc1coc2ccc(O)cc12`, the TGI is above 100 µM.

As for `O=C(Nc1ccccc1)NS(=O)(=O)c1ccc(-n2nc3c(c2-c2cccs2)Cc2ccccc2-3)cc1`, the GI50 is 22.9 µM and the TGI turned out to be 55.3 µM.

As for `CCCCCN(CCCCC)CC(O)c1cc(C)c2ccc3cc(C(C)C)ccc3c2c1` (stereo unspecified), the GI50 was 1.9 µM and the TGI is 3.82 µM.

In the case of `CC(C)CCC[C@@H](C)[C@H]1CC[C@H]2[C@@H]3CC=C4C[C@@H](C(C(=O)O)C(=O)O)CC[C@]4(C)[C@H]3CC[C@]12C`, the GI50 is 0.129 µM and the TGI is 0.408 µM.

On to `CC(C)C/C(CC(=O)CCC(=O)Nc1ccccc1[N+](=O)[O-])=N\NC(=O)c1cc2ccccc2cc1O`, for which the TGI was above 100 µM.

Take `COc1ccc(-c2nc3sccn3c2/C(N)=N/C(=N)N)cc1OC`: the GI50 is 34.1 µM and the TGI is above 100 µM.

With `CC1=C(C(=O)Nc2ccc(Cl)c(Cl)c2)C(c2cccc(Oc3ccccc3)c2)NC(=S)N1` (stereo unspecified), the GI50 is 7.84 µM and the TGI is 14.8 µM.

With `Nc1ccccc1SC(C[N+](=O)[O-])c1ccc2c(c1)OCO2` (stereo unspecified), the TGI was 8.53 µM.

In turn, `O=C(/C=C/c1ccccc1)NC1C=Nc2ccc(Cl)cc2NC1=O` (stereo unspecified) returned a TGI of 79.9 µM.

As for `COc1cc(Cc2cnc(/N=C3\C(=O)N(CN4CCN(c5c(F)cc6c(=O)c(C(=O)O)cn(C7CC7)c6c5OC)CC4C)c4ccc(F)cc43)nc2N)cc(OC)c1OC` (stereo unspecified), the GI50 is 8.79 µM and the TGI is 21 µM.

Regarding `COC1CCC2C(NS(=O)(=O)c3ccc(C)cc3)CCCC2O1` (stereo unspecified) (tested in a mixture with another compound), the TGI is above 34.5 µM.

As for `CN(C)C(=N)c1ccccc1`, the TGI is above 100 µM.

In the case of `NNC(=O)Nc1cccnc1`, the TGI was above 100 µM.

`C=C1C(=O)C23CC1CCC2C12CO[C@@H]4OCC(C)(CC[C@@H]1OC3=O)C42` (stereo partly specified) gave a TGI of 27.4 µM.

A further experiment concerns SN12C renal. The experiment can be described thus: NCI anticancer screen, dose series, 48 h.
With `CCOC(=O)[C@]1(OC(C)=O)C[C@H](OC(C)=O)[C@@H](C(F)COP(=O)(OCc2ccccc2)OCc2ccccc2)O1` (stereo partly specified), the TGI was above 100 µM.

Compound `O=C(O)c1ccccc1[Se][Se]c1ccccc1C(=O)O` showed a TGI above 100 µM.

`CC[C@@]1(O)C[C@H](OC2CC(N(C)C)C(O)C(C)O2)c2c(O)c3c(c(O)c2[C@H]1OC1CC(N(C)C)C(O)C(C)O1)C(=O)c1cccc(O)c1C3=O` (stereo partly specified): the GI50 is below 0.01 µM and the TGI amounted to 1.04 µM.

As to `CC(C)=CC(=O)C1c2cccc(O)c2C(=O)c2c(O)cc(C)cc21` (stereo unspecified), the TGI stood at 25.4 µM.

Compound `O=C(O)CCc1coc2ccc(O)cc12` yielded a TGI above 100 µM.

For `O=C(Nc1ccccc1)NS(=O)(=O)c1ccc(-n2nc3c(c2-c2cccs2)Cc2ccccc2-3)cc1`, the GI50 was 19.9 µM and the TGI came out at 64.2 µM.

With `CCCCCN(CCCCC)CC(O)c1cc(C)c2ccc3cc(C(C)C)ccc3c2c1` (stereo unspecified), the GI50 is 1.75 µM and the TGI was determined as 3.59 µM.

Consider `CC(C)CCC[C@@H](C)[C@H]1CC[C@H]2[C@@H]3CC=C4C[C@@H](C(C(=O)O)C(=O)O)CC[C@]4(C)[C@H]3CC[C@]12C`, for which the GI50 was 0.137 µM and the TGI turned out to be 0.457 µM.

The compound `CC(C)C/C(CC(=O)CCC(=O)Nc1ccccc1[N+](=O)[O-])=N\NC(=O)c1cc2ccccc2cc1O` displayed a TGI above 100 µM.

Turning to `COc1ccc(-c2nc3sccn3c2/C(N)=N/C(=N)N)cc1OC`, the GI50 was 27.2 µM and the TGI is above 100 µM.

`CC1=C(C(=O)Nc2ccc(Cl)c(Cl)c2)C(c2cccc(Oc3ccccc3)c2)NC(=S)N1` (stereo unspecified): the GI50 is 8.75 µM and the TGI was 15.9 µM.

The compound `Nc1ccccc1SC(C[N+](=O)[O-])c1ccc2c(c1)OCO2` (stereo unspecified) displayed a TGI of 14.3 µM.

Regarding `O=C(/C=C/c1ccccc1)NC1C=Nc2ccc(Cl)cc2NC1=O` (stereo unspecified), the TGI was above 100 µM.

For the compound `COC(=O)[C@@H](NC(=O)CNC(=O)[C@H]1CCCN1C(=O)C(Cc1ccccc1)NC(=S)Nc1cc(C(F)(F)F)cc(C(F)(F)F)c1)C(C)C` (stereo partly specified) (X6-[ξF][dP]GV-OMe), the GI50 is 1.85 µM and the TGI stood at 4.26 µM.

For `COc1cc(Cc2cnc(/N=C3\C(=O)N(CN4CCN(c5c(F)cc6c(=O)c(C(=O)O)cn(C7CC7)c6c5OC)CC4C)c4ccc(F)cc43)nc2N)cc(OC)c1OC` (stereo unspecified), the GI50 was 15.6 µM and the TGI came to 31.1 µM.

Compound `COC1CCC2C(NS(=O)(=O)c3ccc(C)cc3)CCCC2O1` (stereo unspecified) (tested in a mixture with another compound) had a TGI above 34.5 µM.

Compound `CN(C)C(=N)c1ccccc1` returned a TGI above 100 µM.

`NNC(=O)Nc1cccnc1` registered a TGI above 100 µM.

`CC1=C(C(=O)NCc2ccccc2)C(/C=C/c2ccccc2)C(C(=O)NCc2ccccc2)=C(C)N1` returned a TGI above 100 µM.

In turn, `C=C1C(=O)C23CC1CCC2C12CO[C@@H]4OCC(C)(CC[C@@H]1OC3=O)C42` (stereo partly specified) displayed a TGI of 21.3 µM.

Another experiment has as its system RXF 393 renal. Nature of the experiment: NCI anticancer screen, dose series, 48 h.
Regarding `CCOC(=O)[C@]1(OC(C)=O)C[C@H](OC(C)=O)[C@@H](C(F)COP(=O)(OCc2ccccc2)OCc2ccccc2)O1` (stereo partly specified), the GI50 is 24.5 µM and > 100 µM; the TGI was 68.2 µM and > 100 µM.

On to `O=C(O)c1ccccc1[Se][Se]c1ccccc1C(=O)O`, for which the TGI is above 100 µM.

As for `CC[C@@]1(O)C[C@H](OC2CC(N(C)C)C(O)C(C)O2)c2c(O)c3c(c(O)c2[C@H]1OC1CC(N(C)C)C(O)C(C)O1)C(=O)c1cccc(O)c1C3=O` (stereo partly specified), the GI50 was below 0.01 µM; the TGI was 0.0643 µM and < 0.01 µM.

In turn, `CC(C)=CC(=O)C1c2cccc(O)c2C(=O)c2c(O)cc(C)cc21` (stereo unspecified) returned a TGI of 4.39 µM.

Turning to `O=C(O)CCc1coc2ccc(O)cc12`, the TGI is above 100 µM.

For the compound `O=C(Nc1ccccc1)NS(=O)(=O)c1ccc(-n2nc3c(c2-c2cccs2)Cc2ccccc2-3)cc1`, the GI50 was 85.3 µM and the TGI is above 100 µM.

`CCCCCN(CCCCC)CC(O)c1cc(C)c2ccc3cc(C(C)C)ccc3c2c1` (stereo unspecified): the GI50 was 1.57 µM and the TGI was 3.1 µM.

`CC(C)CCC[C@@H](C)[C@H]1CC[C@H]2[C@@H]3CC=C4C[C@@H](C(C(=O)O)C(=O)O)CC[C@]4(C)[C@H]3CC[C@]12C`: the GI50 is 0.192 µM and the TGI came out at 0.662 µM.

Values taken from PubChem BioAssay (NCI).
